Where two headings read alike, the source gives them in different places.
Columns and labels:
[1] = test system: NF-κB in RAW 264.3 cells; assay: Luciferase activity of NF-κB, VEGF-induced; type: cell-based; conditions: chemicals 1, 10 and 25 µM, avastin 10 ng/mL
Description: The luciferase of NK-κB activity was performed following a previous report. Briefly, RAW 264.3 cells were transfected with pNF-κB (Thermo Fisher Scientific) using jetPRIME and incubated for 24 h. The refresh medium was replaced every four hours, and drug treatments were added twice after 24 h or 48 h. Upon completion of the reaction, the chemical luminescent intensity was determined by a luminometer (Promega, WI, USA) and normalized by protein concentrations.

[2] = Chemical stability test through HPLC analysis; type: physicochemical; conditions: for Inter-Day RSD / Inter-Day Mean Peak Area: 6 consecutive days; for Inter-Day RSD / Intra-Day RSD: n = 6; for Inter-Day Mean Peak Area / Intra-Day Mean Peak Area: n = 6, 210 nm; for Intra-Day RSD / Intra-Day Mean Peak Area: same day; for Stability in aqueous solution (in words): acidic, neutral and basic conditions, HPLC
Excerpt: Chemical degradation has been a major factor resulting in molecular hydrolysis, oxidation, light-catalyzed degradation and so on. Therefore, stability in aqueous solution, including acidic, neutral and basic conditions, has become a crucial requirement for a promising drug candidate. Prior to the biochemical assay, three phytochemicals were subjected to HPLC analysis to determine their stabilities in various solutions. Glycine buffer (pH 8–11), PBS (pH 7–8) and acetate buffer (pH 4–6) were employed to cover the main pH ranges. […].
The stability test was validated by determining the intra-day and inter-day variability through HPLC analysis, which was performed on an Agilent 1200 Liquid Chromatography (Santa Clara, CA, USA) equipped with an ODS C18 column (4.6 mm × 250 mm). Glycine buffer (pH 8–11), PBS (pH 7–8) and acetate buffer (pH 4–6) were employed to cover main pH ranges. Stock solutions at a concentration of 10 mM of the test compounds were prepared in DMSO and stored at −20 °C, while working concentrations were prepared at 1–5 μM solution in DMSO and buffers. Chromatography was conducted through the ORBAX XDB-C18 column (Agilent, 4.6 × 50 mm, 1.8 μm). The mobile phase was a mixture of water and acetonitrile (95:5, v/v), and the elution time was 15 min. The mobile phase flow rate and injection volume were 1.0 mL/min and 10 μL, respectively. Analytes were detected at a 210 nm wavelength. The intra-day and inter-day stability was calculated by analyzing six replicates of the standard solution of the two analytes during a single day and six replicates of the samples detected on six consecutive days, respectively. Thereafter, the relative standard deviation (RSD) was determined as a measurement of stability.

[3] = target: T1, VEGF protein (Homo sapiens, UniProt P15692); assay: Ultrafiltration-based affinity assay; type: binding; conditions: ligand 0.02 µM, VEGF protein 0.02 µM, 4 °C, 2 h, n = 4
T1 construct: purchased MCE
T1 sequence (P15692 1-191 isoform P15692-4): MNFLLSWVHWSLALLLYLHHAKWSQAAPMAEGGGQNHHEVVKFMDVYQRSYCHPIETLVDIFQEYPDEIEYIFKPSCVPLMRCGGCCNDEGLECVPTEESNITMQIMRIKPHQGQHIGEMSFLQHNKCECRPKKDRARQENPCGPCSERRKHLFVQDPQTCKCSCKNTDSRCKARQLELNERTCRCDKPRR
Description: Caco-2 cells were cultured until fully differentiated after being cultured for 21 days, and the integrity of cell monolayer was determined by the transepithelial electrical resistance (TEER). * p < 0.05. […] Red curve: initial concentration of chemicals; black curve: concentration of chemicals binding to the protein (Cpre − Cpost). n = 4.
The binding affinity was evaluated through the previous approach. Specifically, the tested ligands at 0.02 µM were mixed with or without 0.02 µM of the VEGF protein (MCE, Monmouth Junction, NJ, USA) and incubated in Milli-Q water (Burlington, MA, USA) at 4 °C for 2 h. The mixture was transferred to a 0.5 mL ultrafiltration tube (2000 MW cutoff; Sartorius Stedim Biotech, Gottingen, Germany). After multiple rounds of centrifugation, the supernatant was further analyzed through HPLC investigation, as described above in Section 4.6.

[4] = test system: HaCaT cells; assay: MTT cell viability assay; type: cell-based, human; conditions: concentrations up to 100 µM, 24 h
Description: Cell viability was assessed with the MTT assay to evaluate the potential toxicity effect of the tested drugs. HaCaT cells were seeded onto 96-well plates for 24 h prior to drug treatments. After incubations for 24 h, an MTT solution in a final concentration of 0.5 mg/mL was added to each well. Following another 3 h of incubation, DMSO solvent was used to dissolve the purple formazan crystals generated in each well. The absorbance of the samples at 570 nm was measured using a microplate reader (Thermo Fisher Scientific). The cell viability was calculated as follows: cytotoxicity (%) = (experimental value − low control)/(high control − low control) × 100%.

[5] = test system: HaCaT cells; assay: Wound closure (wound healing) assay, VEGF-induced; type: cell-based; conditions: Homo sapiens, 20 h, read-out: IC50 of inhibition of wound recovery rate
Description: Photos of each cell scrape at 0 (At0) and 20 h (At20) were captured with microscope and imaging software (Zen, https://www.zeiss.com/microscopy/en/home.html, accessed on 1 September 2024) at a 10× magnification. […] A: positive control, Avastin; F: farrerol; O: ononin; E: (−)-epicatechin.
A wound closure assay was performed on cultured HaCaT cells to study cell migration in vitro. Procedures were described previously by Guo et al.. Briefly, HaCaT cells were seeded onto a 12-well plate with a density of 3 × 10^5 cells/well. Treatments were given when cells grew to full confluency. After serum starvation, sterile 200 μL pipette tips were used to make a vertical and a horizontal scrape on the cell monolayer in a consistent manner. Cells were washed with PBS and treated with drugs at various concentrations. Photos of each cell scrape at 0 (At0) and 20 h (At20) were captured with a microscope and imaging software (Zen) at a 10× magnification. The software TScratch (CSE lab, Zurich, Switzerland, https://github.com/cselab/TScratch, accessed on 1 September 2024) was used to analyze the open area of each scrape photo at different timepoints. Quantification of the recovery rate of the wound was calculated based on the following equation: wound closure (%) = (At0 − At20)/At20 × 100%.

[6] = test system: endothelial cells; conditions: cell proliferation and migration in endothelial cells, phosphorylation of PI3-K/Akt, JNK and eNOS; cited from earlier work
[7] = test system: tumor growth; conditions: nude mice; cited from earlier work

| Compound | Effect on VEGF-induced NF-κB activity (in words) [1] | Inter-Day RSD ([2]; acidic (acetate buffer pH 4–6)) [%] | Inter-Day Mean Peak Area ([2]; acidic (acetate buffer pH 4–6)) | Intra-Day RSD ([2]; acidic (acetate buffer pH 4–6)) [%] | Intra-Day Mean Peak Area ([2]; acidic (acetate buffer pH 4–6)) | Stability in aqueous solution (in words) [2] | Inter-Day RSD ([2]; basic (glycine buffer pH 8–11)) [%] | Inter-Day Mean Peak Area ([2]; basic (glycine buffer pH 8–11)) | Intra-Day RSD ([2]; basic (glycine buffer pH 8–11)) [%] | Intra-Day Mean Peak Area ([2]; basic (glycine buffer pH 8–11)) | Inter-Day RSD ([2]; neutral (PBS pH 7–8)) [%] | Inter-Day Mean Peak Area ([2]; neutral (PBS pH 7–8)) | Intra-Day RSD ([2]; neutral (PBS pH 7–8)) [%] | Intra-Day Mean Peak Area ([2]; neutral (PBS pH 7–8)) | protein binding degree [3] [%] | Cell viability (cytotoxic effect) [4] | IC50 ([5]; HaCaT) [µM] | IC50 ([5]; HaCaT cells, VEGF-induced) [µM] | Inhibition of VEGF-mediated biological activities (in words) [6] | Tumor growth (in words) [7] |
| --- | --- | --- | --- | --- | --- | --- | --- | --- | --- | --- | --- | --- | --- | --- | --- | --- | --- | --- | --- | --- |
| avastin: Bevacizumab (avastin), first monoclonal antibody targeting the VEGF protein; positive control | attenuate the NF-κB signal |  |  |  |  |  |  |  |  |  |  |  |  |  |  |  |  |  |  |  |
| Cc1c(O)c(C)c2c(c1O)C(=O)C[C@@H](c1ccc(O)cc1)O2 [farrerol] |  | 5.89 | 38,145.2 | 4.09 | 31,803.7 | relatively stable in diverse aqueous conditions | 6.54 | 35,412.4 | 2.81 | 33,332.4 | 4.43 | 36,478.1 | 4.79 | 31,542.0 | 58.3 | cells remained unaffected | 4.7 |  |  |  |
| COc1ccc(-c2coc3cc(O[C@@H]4O[C@H](CO)[C@@H](O)[C@H](O)[C@H]4O)ccc3c2=O)cc1 [ononin] | suppressed in dose-dependent manners | 4.12 | 275,981.3 | 1.93 | 254,398.2 | relatively stable in diverse aqueous conditions | 4.78 | 274,514.7 | 3.12 | 273,422.8 | 3.65 | 265,877.4 | 1.61 | 313,200.4 | 53.4 | cells remained unaffected |  | 3.8 |  |  |
| Oc1ccc(/C=C/c2cc(O)cc(O)c2)cc1 [resveratrol] |  |  |  |  |  |  |  |  |  |  |  |  |  |  |  |  |  |  | robust inhibition | significantly suppress tumor growth |
| Oc1cc(O)c2c(c1)O[C@H](c1ccc(O)c(O)c1)[C@H](O)C2 [(−)-epicatechin] | suppressed in dose-dependent manners | 11.91 | 2510.4 | 3.98 | 2751.5 | some mild degradation of (−)-epicatechin was induced in acidic and basic environments | 13.58 | 2519.4 | 4.85 | 2726.0 | 7.56 | 2601.7 | 1.38 | 2826.6 | 50.3 | cells remained unaffected |  | 9.2 |  |  |
| OC[C@H]1O[C@@H](Oc2cc(O)cc(/C=C/c3ccc(O)cc3)c2)[C@H](O)[C@@H](O)[C@@H]1O [polydatin] |  |  |  |  |  |  |  |  |  |  |  |  |  |  |  |  |  |  | robust inhibition |  |
